# In patent publication US7700590B2, “Antibacterial agents” (University of New Orleans Research and Technology …, priority 2006, dated 2010):
# How the values were obtained:
# Assay type in all cases: cell-based
# [1] = tested on: Staphylococcus aureus 43300; experiment: Antibacterial growth inhibition assay (serial dilution, colorimeter at 600 nm), S. aureus 43300; set-up: key to MIC, concentration at 50% inhibition of bacteria growth, S. aureus 43300: N stands for no inhibition; settings: for MIC, concentration at 50% inhibition of bacteria growth, S. aureus 43300: 50% growth inhibition, methicillin resistant strain, serial dilution 238-0.46 μg/ml
# Method: (§1) The antibacterial activities of the compounds synthesized as described above were evaluated by assay against several strains of Gram positive bacteria from the American Type Culture Collection (ATCC), Staphylococcus aureus 29213, Staphylococcus aureus 43300, Enterococcus faecalis 29212, and Bacillus subtilis PY79. The minimum inhibition concentration (MIC, μg/mL) of each compound synthesized was tested against four bacterial strains. The inhibition of bacterial growth was monitored using a standard colorimeter at 600 nm using a serial dilution at concentrations 238, 119, 59.5, 29.8, 14.9, 7.44, 3.72, 1.86, 0.93, 0.46 μg/ml. Chloramphenicol was tested as a control, and inhibits bacteria growth (MIC90) at 7.44, 7.44, 4.0, 2.0 μg/mL, respectively, for the four bacterial strains listed in Table 1. In Table 1, the MICs are reported as the concentrations at 50% inhibition of bacteria growth, and N stands for no inhibition.
# [2] = tested on: Enterococcus faecalis 29212; experiment: Antibacterial growth inhibition assay (serial dilution, colorimeter at 600 nm), E. faecalis 29212; settings: for MIC, concentration at 50% inhibition of bacteria growth, E. faecalis 29212: 50% growth inhibition, vancomycin susceptible strain, serial dilution 238-0.46 μg/ml
# Method: as §1
# Bacillus subtilis PY79 = experiment: Antibacterial growth inhibition assay (serial dilution, colorimeter at 600 nm), B. subtilis PY79; set-up: key to MIC, concentration at 50% inhibition of bacteria growth, B. subtilis PY79: N stands for no inhibition; settings: for MIC, concentration at 50% inhibition of bacteria growth, B. subtilis PY79: 50% growth inhibition, serial dilution 238-0.46 μg/ml
# Method: as §1
# [3] = tested on: Staphylococcus aureus 29213; experiment: Antibacterial growth inhibition assay (serial dilution, colorimeter at 600 nm), S. aureus 29213; set-up: key to MIC, concentration at 50% inhibition of bacteria growth, S. aureus 29213: N stands for no inhibition; settings: for MIC, concentration at 50% inhibition of bacteria growth, S. aureus 29213: 50% growth inhibition, methicillin susceptible strain, serial dilution 238-0.46 μg/ml
# Method: as §1
# [4] = tested on: Gram positive bacteria, including S. aureus, E. faecalis and B. subtilis; experiment: Antibacterial activity, statements not tied to one strain; settings: strain not singled out
# Method: as §1
SMILES,"MIC, concentration at 50% inhibition of bacteria growth, S. aureus 43300 [1]","MIC, concentration at 50% inhibition of bacteria growth, E. faecalis 29212 [2] [µg/mL]","MIC, concentration at 50% inhibition of bacteria growth, B. subtilis PY79 (Bacillus subtilis PY79)","MIC, concentration at 50% inhibition of bacteria growth, S. aureus 29213 [3]","MIC90 ([1]; Staphylococcus aureus, S. aureus 43300, read-out: MIC90 (control)) [µg/mL]","MIC90 ([2]; Enterococcus faecalis, E. faecalis 29212, read-out: MIC90 (control)) [µg/mL]","MIC90 (Bacillus subtilis PY79; Bacillus subtilis, B. subtilis PY79, read-out: MIC90 (control)) [µg/mL]","MIC90 ([3]; Staphylococcus aureus, S. aureus 29213, read-out: MIC90 (control)) [µg/mL]",antibacterial activity in words [4],antibacterial activity in words ([1]; S. aureus 43300),antibacterial activity in words ([3]; S. aureus 29213)
CCN1CC[C@@H](CN(Cc2ccccc2)Cc2ccccc2C#N)OC1=O [Compound A6],180 µg/mL,33.0,160 µg/mL,130 µg/mL,–,–,–,–,–,–,–
CCN1CC[C@@H](CN(Cc2ccccc2)Cc2cc(F)cc(F)c2)OC1=O [Compound A10],45.0 µg/mL,37.0,43.0 µg/mL,40.0 µg/mL,–,–,–,–,–,–,–
CN1CC[C@@H](CN(Cc2ccccc2)Cc2ccccc2C#N)OC1=O [Compound B6],180 µg/mL,59.5,180 µg/mL,166 µg/mL,–,–,–,–,–,–,–
"O=C(N[C@H](CO)[C@H](O)c1ccc([N+](=O)[O-])cc1)C(Cl)Cl [Chloramphenicol, reference compound]",–,–,–,–,7.44,4,2,7.44,–,–,–
"CCN1CC[C@@H](CN(Cc2ccccc2)Cc2ccc(Cl)c(Cl)c2)OC1=O (stereo in doubt) [Compound A11, 6-{[benzyl-(3,4-dichloro-benzyl)-amino]-methyl}-3-ethyl-[1,3]oxazinan-2-one]",–,–,–,–,–,–,–,–,good activity,–,–
CCN1CC[C@@H](CN(Cc2ccccc2)Cc2cccc(C#N)c2)OC1=O [Compound A5],N,45.0,238 µg/mL,238 µg/mL,–,–,–,–,–,–,–
CCN1CC[C@@H](CN(Cc2ccccc2)Cc2ccc(F)cc2)OC1=O [Compound A7],47.0 µg/mL,35.0,42.5 µg/mL,64.0 µg/mL,–,–,–,–,–,–,–
CCN1CC[C@@H](CN(Cc2ccccc2)Cc2cccc(OC)c2)OC1=O [Compound A16],90.0 µg/mL,80.5,95.0 µg/mL,90.0 µg/mL,–,–,–,–,–,–,–
CCN1CC[C@@H](CN(Cc2ccccc2)Cc2ccc3ccccc3c2)OC1=O [Compound A12],N,13.0,29.0 µg/mL,15.0 µg/mL,–,–,–,–,–,no activity,promising activity
CCN1CC[C@@H](CN(Cc2ccccc2)Cc2ccc(F)cc2F)OC1=O [Compound A8],50.5 µg/mL,59.5,38.0 µg/mL,45.0 µg/mL,–,–,–,–,–,–,–
CCN1CC[C@@H](CN(Cc2ccccc2)Cc2ccc(C#N)cc2)OC1=O [Compound A4],59.5 µg/mL,12.0,10.0 µg/mL,180 µg/mL,–,–,–,–,–,–,–
CN1CC[C@@H](CN(Cc2ccccc2)Cc2ccc(F)cc2F)OC1=O [Compound B8],72.0 µg/mL,59.5,55.0 µg/mL,50.0 µg/mL,–,–,–,–,–,–,–
CN1CC[C@@H](CN(Cc2ccccc2)Cc2ccc(C#N)cc2)OC1=O [Compound B4],N,238,238 µg/mL,200 µg/mL,–,–,–,–,–,–,–
CCN1CC[C@@H](CN(Cc2ccccc2)Cc2ccccc2[N+](=O)[O-])OC1=O [Compound A3],100 µg/mL,43.0,100 µg/mL,72.0 µg/mL,–,–,–,–,–,–,–
CCN1CC[C@@H](CN(Cc2ccccc2)Cc2cccc([N+](=O)[O-])c2)OC1=O [Compound A2],22.0 µg/mL,47.0,108 µg/mL,90.0 µg/mL,–,–,–,–,–,–,–
CN1CC[C@@H](CN(Cc2ccccc2)Cc2ccc([N+](=O)[O-])cc2)OC1=O [Compound B1],N,119,98.0 µg/mL,81.0 µg/mL,–,–,–,–,–,–,–
CN1CC[C@@H](CN(Cc2ccccc2)Cc2cccc(C#N)c2)OC1=O [Compound B5],238 µg/mL,7.40,180 µg/mL,180 µg/mL,–,–,–,–,–,–,–
CN1CC[C@@H](CN(Cc2ccccc2)Cc2cccc([N+](=O)[O-])c2)OC1=O [Compound B2],N,119,238 µg/mL,138 µg/mL,–,–,–,–,–,–,–
CN1CC[C@@H](CN(Cc2ccccc2)Cc2ccccc2[N+](=O)[O-])OC1=O [Compound B3],N,238,238 µg/mL,179 µg/mL,–,–,–,–,–,–,–
CN1CC[C@@H](CN(Cc2ccccc2)Cc2ccc(F)cc2)OC1=O [Compound B7],119 µg/mL,120,95.0 µg/mL,87.1 µg/mL,–,–,–,–,–,–,–
CCN1CC[C@@H](CN(Cc2ccccc2)Cc2c(F)cccc2F)OC1=O [Compound A9],70.0 µg/mL,59.5,77.0 µg/mL,47.0 µg/mL,–,–,–,–,–,–,–
CCN1CC[C@@H](CN(Cc2ccccc2)Cc2ccc([N+](=O)[O-])cc2)OC1=O [Compound A1],N,45.0,N,N,–,–,–,–,–,–,–
